These results are taken from patent US9546129B2, “DTPA prodrugs, compositions thereof, and methods of using the same” (priority 2012, dated 2017).

Structures are written as SMILES.

The test system of one data set is ^241Am contaminated rats. The data set can be described thus: Once vs twice daily dosing ^241Am decorporation study in rats. Type of data set: in vivo, Sprague Dawley rat. The following applies: for Total Decorporation: seven days after IM ^241Am. The method, then: The animal study was conducted according to a protocol approved by The University of North Carolina at Chapel Hill Institutional Animal Care and Use Committee. Sixteen male Sprague Dawley rats were contaminated with ^241Am(NO3)3 (0.25 μCi) by intramuscular injection (0.1 mL, 0.1 M HNO3) into the right hind leg, under isoflurane anesthesia. Immediately after injection, body weights were recorded (Day 0 weight) and animals placed in individual metabolic cages. The 16 rats were assigned to four groups; untreated control, 5 daily oral gavage doses of 600 mg/kg C2E2 once daily, 5 days of oral gavage treatment of 300 mg/kg C2E2 twice daily or 5 daily intravenous doses of Zn-DTPA solution (13.3 mg/kg) via a jugular vein catheter. The C2E2 was from Lot 050 obtained using Method 2. The C2E2 dosing solution utilized was a 10% w/w solution in water. […] Excreted urine and feces were collected at 2, 4, 8, 10, 12, 14, 18, 20 and 24 hours after the first dose and daily for the remainder of the study. The samples were transferred to 20 mL scintillation vials, weighed and placed in a gamma counter (Wizard2 2480, Perkin Elmer) for detection of ^241Am gamma activity. In addition, following necropsy, selected tissues were removed, weighed and placed in a gamma counter (Wizard2 2480, Perkin Elmer) for detection of ^241Am gamma activity. The total amount of ^241Am administered to the animals was determined by quantifying the 59.7 keV photons emitted by ^241Am in duplicate aliquots (100 μL) of the injection solution using a gamma counter (wizard series, Perkin-Elmer). A counting window from 40-80 keV and a 60-second counting time were used for acquisition and each reading was corrected for background at acquisition. All experimental tissues and samples were counted using the same gamma counter and protocol. For all the samples, ^241Am content was expressed as a percentage of the initial dose. The femur from the leg opposite to the injection site was scaled by a factor of 20 to estimate total skeletal ^241Am burden.

Data set [1] is described as follows: Protonation constants by potentiometric titration. Type of data set: physicochemical. The following applies: 5 mM ligand in 0.15 M KCl. As to the method:
The protonation constants for C2E2 were determined by preparing a 5 mM solution of free ligand in 0.15 M KCl. The constants were calculated from three replicates, with each experiment consisting of a titration with acid, followed by a titration with base. After each addition of titrant, a 30 second equilibration time passed before pH measurement with a Seven Easy pH meter and (Ag/AgCl reference) glass electrode (Metler Tolledo). At the end of the titrations, the presence of C2E2 was confirmed by HPLC-CAD. Evaluation of the titration curve for C2E2 (FIG. 31) identified 6 pKa values that correspond with the three tertiary amines and three carboxylic acids. The values were determined by refinement using […] software. The pKa values determined for C2E2 are consistent with DTPA analogues previously investigated for use as MRI contrast agents with two carboxylic acids are functionalized such as DTPA-BMA and DTPA-BBA (Rizkalla, E. N., et al., Inorganic Chemistry, 32, 582-586, (1993) and Geraldes C. F., et al., Journal of the Chemical Society-Dalton Transactions, 327-335 (1995)).

A further data set relates to Caco-2 cells. The data set can be described thus: Caco-2 transport study (apical to basolateral). Type of data set: in vitro ADME, human. The method, then: (§1) Caco-2 cells are a human colon epithelial cancer cell line that expresses transporters, efflux proteins and phase II enzymes and can be used to correlate cell permeability with drug absorption. In addition to determining the apparent permeability coefficient, an estimation of C2E2 metabolism during transport can be obtained. The aim of these preliminary studies was to evaluate a range of C2E2 concentrations (25, 50 & 100 μM) in order to determine a linear concentration range in which further studies could be performed.
(§2) Caco-2 cells (passage #39) were cultured in 75 cm^2T-flasks at 37° C. in a 5% CO2 constant humidity environment. The medium was replaced 3 times a week and the monolayers were sub-cultured to passage #41. When plating the cells 0.5 mL of a 120,000 cells/mL suspension was added to each apical (AP) compartment of the first and then 1.5 mL of cell culture medium was placed into the basolateral (BL) compartment of the Transwells®. Following 21-24 days on the Transwell® plates with media changes 2-3 times a week the Caco-2 transport studies were performed.
(§3) Prior to the transport experiments the transport medium was warmed to 37° C. Transport medium consisted of Hank's Balanced Salt Solution (HBSS) (1×) with calcium and magnesium 500 mL with the addition of 1M HEPES buffer (5 mL) and 1.25M D-Glucose solution in HBSS (10 mL). The cell culture medium was removed from the Transwells® to be used for the experiment and each well was washed twice with warm transport medium. The Transwells® were then pre-incubated for 30 min with transport medium. Finally, the trans-epithelial resistance (TEER) values for each Transwell® were measured using a voltohmmmeter and chopstick electrode. The TEER values should be in the range of 300-750 and should vary as little as possible. Dosing solutions were prepared in warm (37° C.) transport medium. […] The concentration of C2E2 was then determined by LC-MS/MS. The concentration of the dosing solutions was also measured to determine the concentration in the donor compartment at time zero. […]
On the technique in general: Caco-2 cells form a polarised layer with tight junctions and transporters.

Data set [2] in a line: Caco-2 transport study (apical to basolateral). The following applies: human, Caco-2; apical to basolateral; read-out: Apparent permeation coefficient. It is filed as in vitro ADME, human. As to the method:
as §1, §2, §3

Turning to `CCOC(=O)CN(CCN(CCN(CC(=O)O)CC(=O)OCC)CC(=O)O)CC(=O)O` [C2E2, 6,9-bis(carboxymethyl)-3-(2-ethoxy-2-oxoethyl)-11-oxo-12-oxa-3,6,9-triazatetradecan-1-oic acid], the “Effect of dividing the dosage (twice daily vs once daily) on total decorporation” value in the data set on ^241Am contaminated rats (300 mg/kg BD vs 600 mg/kg OD, male rats) is “did not significantly alter total decorporation”. In the data set with ^241Am contaminated rats (C2E2 300 mg/kg oral gavage twice daily for 5 days, male rats), the “Total Decorporation” value was 43.6 ± 1.6 % of injected dose. Also, in the data set on ^241Am contaminated rats (C2E2 600 mg/kg oral gavage once daily x5, male rats), the “Total Decorporation” value is on record as 39.7 ± 2.6 % of injected dose. In addition, in data set [1], the PKa2 is on record as 4.68 ± 0.02, the pKa1 came to 9.40, the pKa3 stood at 3.52 ± 0.03 and the pKa4 was 1.87 ± 0.05. Further, in data set [1], the pKa5 was determined as 1.76 and the pKa6 is reported as 1.45. Also, the “Percentage of dose detected in the receiving compartment” value in the data set on Caco-2 cells (apical to basolateral, 25, 50 & 100 μM, two hours) is 18-22%. The “Predicted absorption in humans” value with Caco-2 cells (from Caco-2 Papp using data of Shiyin Yee) is reported as 20-70%. In addition, the Papp A→B at 120 min in data set [2] turned out to be 4.88 ×10⁻⁶ cm/s.
